The test system of test [1] is ENR+CD organoids. Kind of test: Primary screen: ATP (CellTiter-Glo 3D, CTG) cell number/viability, 2.5-D 384-well ENR+CD organoids.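 As to all read-outs here: compounds given at plating and again on day 3 over a 6-day differentiation from ENR+CV stem-cell-enriched precursors, ATP measured on day 6, plate median as control.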 Particulars: primary screen; for Z.CTG: standard z score. (Cellular ATP, detected with luciferase, serves as a proxy for viable cell number.)
Test [2] concerns ENR+CD organoids (ISC to Paneth cell differentiation). Kind of test: Primary screen: basal (non-stimulated) lysozyme secretion LYZ.NS, 2.5-D 384-well ENR+CD organoid differentiation. The format is cell-based, mouse. To be noted: primary screen; for Z.LYZ.NS: standard z score. The source says: (§1) High-throughput screening.
Test [3] shares this test system. Kind of test: Primary screen: CCh-stimulated lysozyme secretion LYZ.S, 2.5-D 384-well ENR+CD organoid differentiation. It counts as cell-based, mouse. To be noted: primary screen.
Source text: as §1

The mark [4] stands for this setting: dose 0.08 uM, FC vs plate median.
Setting [5] is: dose 0.40 uM, FC vs plate median.
The mark [6] stands for this setting: dose 2.00 uM, FC vs plate median.
Setting [7] is: dose 10.00 uM, FC vs plate median.
Setting [8] is: dose 0.08 uM, FC relative to plate median.
[9] abbreviates: dose 0.40 uM, FC relative to plate median.
[10] abbreviates: dose 2.00 uM, FC relative to plate median.
Setting [11] is: dose 10.00 uM, FC relative to plate median.

For `CC(=O)c1c(C)c2cnc(Nc3ccc(N4CCNCC4)cn3)nc2n(C2CCCC2)c1=O.Cl` [Palbociclib (PD-0332991) HCl], the Z.CTG is listed as 0.404 in test [1] (dose 0.08 uM), −0.836 in test [1] (dose 0.40 uM), −0.199 in test [1] (dose 2.00 uM) and −1.617 in test [1] (dose 10.00 uM). Further, the Dose.FC.CTG in test [1] (setting [4]) is on record as 0.169 log2 fold change; in test [1] (setting [5]) it was −0.350 log2 fold change; in test [1] (setting [6]), −0.083 log2 fold change; in test [1] (setting [7]) it was −0.677 log2 fold change. Moreover, the Z.LYZ.NS is −0.055 in test [2] (dose 0.08 uM), −0.248 in test [2] (dose 0.40 uM), −0.440 in test [2] (dose 2.00 uM) and −1.150 in test [2] (dose 10.00 uM). Also, the Dose.FC.LYZ.NS in test [2] (setting [4]) is −0.006 log2 fold change; in test [2] (setting [5]), −0.029 log2 fold change; in test [2] (setting [6]) it was −0.051 log2 fold change; in test [2] (setting [7]), −0.132 log2 fold change. Also, the Dose.FC.LYZ.S in test [3] (setting [4]) is listed as 0.004 log2 fold change; in test [3] (setting [5]), −0.042 log2 fold change; in test [3] (setting [6]), −0.122 log2 fold change; in test [3] (setting [7]), −0.203 log2 fold change.

Consider `CC(=O)O[C@H]1C[C@@H]2CC[C@@H]3[C@H](CC[C@@]4(C)[C@H]3C[C@H]([N+]3(C)CCCCC3)[C@@H]4OC(C)=O)[C@@]2(C)C[C@@H]1[N+]1(C)CCCCC1.[Br-].[Br-]` [Pancuronium dibromide], for which the Z.CTG is on record as 0.519 in test [1] (dose 0.08 uM), 0.541 in test [1] (dose 0.40 uM), −0.029 in test [1] (dose 2.00 uM) and 0.148 in test [1] (dose 10.00 uM). The Dose.FC.CTG is on record as 0.217 log2 fold change in test [1] (setting [4]), 0.226 log2 fold change in test [1] (setting [5]), −0.012 log2 fold change in test [1] (setting [6]) and 0.062 log2 fold change in test [1] (setting [7]). Besides, the Z.LYZ.NS in test [2] (dose 0.08 uM) was determined as 1.118; in test [2] (dose 0.40 uM) it was 0.406; in test [2] (dose 2.00 uM), 0.806; in test [2] (dose 10.00 uM), 0.302. In addition, the Dose.FC.LYZ.NS in test [2] (setting [4]) amounted to 0.128 log2 fold change; in test [2] (setting [5]), 0.047 log2 fold change; in test [2] (setting [6]), 0.093 log2 fold change; in test [2] (setting [7]) it was 0.035 log2 fold change. Moreover, the Dose.FC.LYZ.S in test [3] (setting [4]) is reported as 0.213 log2 fold change; in test [3] (setting [5]), 0.094 log2 fold change; in test [3] (setting [6]) it was 0.099 log2 fold change; in test [3] (setting [7]) it was 0.004 log2 fold change.

`Cc1[nH]c2ccccc2c1CCNCc1ccc(/C=C/C(=O)NO)cc1` [Panobinostat (LBH589)]: the Z.CTG in test [1] (dose 0.08 uM) is reported as 0.706; in test [1] (dose 0.40 uM) it was 0.506; in test [1] (dose 2.00 uM) it was −1.283; in test [1] (dose 10.00 uM), −2.395. The Dose.FC.CTG in test [1] (setting [4]) is listed as 0.295 log2 fold change; in test [1] (setting [5]), 0.212 log2 fold change; in test [1] (setting [6]) it was −0.537 log2 fold change; in test [1] (setting [7]) it was −1.003 log2 fold change. Also, the Z.LYZ.NS is reported as 0.014 in test [2] (dose 0.08 uM), −0.232 in test [2] (dose 0.40 uM), −1.329 in test [2] (dose 2.00 uM) and −1.891 in test [2] (dose 10.00 uM). In addition, the Dose.FC.LYZ.NS in test [2] (setting [4]) was 0.002 log2 fold change; in test [2] (setting [5]), −0.027 log2 fold change; in test [2] (setting [6]), −0.153 log2 fold change; in test [2] (setting [7]), −0.217 log2 fold change. Also, the Dose.FC.LYZ.S is on record as −0.034 log2 fold change in test [3] (setting [4]), −0.042 log2 fold change in test [3] (setting [5]), −0.285 log2 fold change in test [3] (setting [6]) and −0.320 log2 fold change in test [3] (setting [7]).

Consider `Oc1cc(O)cc(/C=C/c2ccc(O)c(O)c2)c1` [Piceatannol], for which the Dose.FC.CTG in test [1] (setting [4]) is on record as 0.232 log2 fold change; in test [1] (setting [5]), −0.090 log2 fold change; in test [1] (setting [6]), 0.074 log2 fold change; in test [1] (setting [7]) it was −0.071 log2 fold change. Also, the Z.LYZ.NS in test [2] (dose 0.08 uM) is listed as 0.698; in test [2] (dose 0.40 uM), 0.375; in test [2] (dose 2.00 uM) it was 0.221; in test [2] (dose 10.00 uM), −0.184. The Dose.FC.LYZ.NS in test [2] (setting [4]) was 0.080 log2 fold change; in test [2] (setting [5]), 0.043 log2 fold change; in test [2] (setting [6]), 0.025 log2 fold change; in test [2] (setting [7]), −0.021 log2 fold change. The Dose.FC.LYZ.S was 0.094 log2 fold change in test [3] (setting [4]), 0.045 log2 fold change in test [3] (setting [5]), 0.016 log2 fold change in test [3] (setting [6]) and −0.104 log2 fold change in test [3] (setting [7]).

`COc1ccc(-c2nc3ccc(C4=NNC(=O)CC4C)cc3[nH]2)cc1` (stereo not drawn) [Pimobendan]: the Dose.FC.CTG is reported as −0.022 log2 fold change in test [1] (setting [4]), 0.193 log2 fold change in test [1] (setting [5]), 0.206 log2 fold change in test [1] (setting [6]) and 0.139 log2 fold change in test [1] (setting [7]). Further, the Z.LYZ.NS in test [2] (dose 0.08 uM) was 0.328; in test [2] (dose 0.40 uM) it was 0.546; in test [2] (dose 2.00 uM), 1.121; in test [2] (dose 10.00 uM) it was −0.577. The Dose.FC.LYZ.NS in test [2] (setting [4]) is listed as 0.038 log2 fold change; in test [2] (setting [5]) it was 0.063 log2 fold change; in test [2] (setting [6]), 0.129 log2 fold change; in test [2] (setting [7]), −0.066 log2 fold change. Besides, the Dose.FC.LYZ.S in test [3] (setting [4]) was 0.129 log2 fold change; in test [3] (setting [5]), 0.051 log2 fold change; in test [3] (setting [6]), 0.194 log2 fold change; in test [3] (setting [7]), −0.134 log2 fold change.

As to `O=C(NNc1ccccc1)c1ccncc1` [PluriSIn #1 (NSC 14613)], the Z.CTG in test [1] (dose 0.08 uM) is listed as −0.349; in test [1] (dose 0.40 uM) it was −0.226; in test [1] (dose 2.00 uM), −1.035; in test [1] (dose 10.00 uM) it was −2.038. Further, the Dose.FC.CTG is listed as −0.146 log2 fold change in test [1] (setting [4]), −0.095 log2 fold change in test [1] (setting [5]), −0.433 log2 fold change in test [1] (setting [6]) and −0.853 log2 fold change in test [1] (setting [7]). The Z.LYZ.NS in test [2] (dose 0.08 uM) was 0.720; in test [2] (dose 0.40 uM), 0.039; in test [2] (dose 2.00 uM), −0.929; in test [2] (dose 10.00 uM), −2.475. Also, the Dose.FC.LYZ.NS was 0.083 log2 fold change in test [2] (setting [4]), 0.004 log2 fold change in test [2] (setting [5]), −0.107 log2 fold change in test [2] (setting [6]) and −0.284 log2 fold change in test [2] (setting [7]). For the same compound, the Dose.FC.LYZ.S in test [3] (setting [4]) was 0.057 log2 fold change; in test [3] (setting [5]), −0.007 log2 fold change; in test [3] (setting [6]), −0.133 log2 fold change; in test [3] (setting [7]), −0.372 log2 fold change.

On to `Nc1cccc2c1C(=O)N(C1CCC(=O)NC1=O)C2=O` (stereo not drawn) [Pomalidomide], for which the Dose.FC.CTG is listed as 0.063 log2 fold change in test [1] (setting [4]), 0.224 log2 fold change in test [1] (setting [5]), −0.216 log2 fold change in test [1] (setting [6]) and −0.305 log2 fold change in test [1] (setting [7]). Moreover, the Z.LYZ.NS is reported as −0.019 in test [2] (dose 0.08 uM), −0.013 in test [2] (dose 0.40 uM), −0.334 in test [2] (dose 2.00 uM) and −1.098 in test [2] (dose 10.00 uM). Moreover, the Dose.FC.LYZ.NS is −0.002 log2 fold change in test [2] (setting [4]), −0.001 log2 fold change in test [2] (setting [5]), −0.038 log2 fold change in test [2] (setting [6]) and −0.126 log2 fold change in test [2] (setting [7]). In addition, the Dose.FC.LYZ.S was −0.028 log2 fold change in test [3] (setting [4]), −0.082 log2 fold change in test [3] (setting [5]), −0.115 log2 fold change in test [3] (setting [6]) and −0.205 log2 fold change in test [3] (setting [7]).

Turning to `C#CCC(Cc1cnc2nc(N)nc(N)c2n1)c1ccc(C(=O)N[C@@H](CCC(=O)O)C(=O)O)cc1` (stereo partly drawn) [Pralatrexate], the Dose.FC.CTG in test [1] (setting [8]) was −0.649 log2 fold change; in test [1] (setting [9]), −0.853 log2 fold change; in test [1] (setting [10]), −0.681 log2 fold change; in test [1] (setting [11]), −0.922 log2 fold change. For the same compound, the Dose.FC.LYZ.NS in test [2] (setting [8]) was −0.135 log2 fold change; in test [2] (setting [9]), −0.162 log2 fold change; in test [2] (setting [10]) it was −0.154 log2 fold change; in test [2] (setting [11]), −0.148 log2 fold change. The Z.LYZ.NS was −1.173 in test [2] (dose 0.08 uM), −1.413 in test [2] (dose 0.40 uM), −1.345 in test [2] (dose 2.00 uM) and −1.292 in test [2] (dose 10.00 uM). Further, the Dose.FC.LYZ.S was −0.183 log2 fold change in test [3] (setting [8]), −0.176 log2 fold change in test [3] (setting [9]), −0.173 log2 fold change in test [3] (setting [10]) and −0.215 log2 fold change in test [3] (setting [11]).

For the origin of these results see patent publication US20220323406A1, “METHODS AND COMPOSITIONS FOR DIFFERENTIATING STEM CELLS” (Massachusetts Institute of Technology, priority 2019, published 2022).
